# Reference: patent US20230183712A1, “METHODS FOR E[…] ACID AMMONIA LYASE ENZYMES AND ENZYMES THEREBY OBTAINED” (priority 2020, published 2023)
# Experiments:
# [1] = target: T1, Anabaena variabilis phenylalanine ammonia-lyase (DM-rAvPAL/AvPAL*; C503S and C565S, SEQ ID NO:2) variant M222L (Trichormus variabilis, UniProt Q3M5Z3, C503S/C565S/M222L); assay: Enzyme kinetics: production of tCA from phe (Michaelis-Menten), mutant M222L; format: biochemical; conditions: PBS pH 7.4, 37° C.
# T1 construct: His-tag (N); made in house; host or cells: E. coli MG1655 rph+
# Method: (§1) Enzyme activity assays. The activity of all AvPAL constructs was measured by production of tCA over time. Cultures were sonicated on ice using a Sonifier SFX 150 (Branson Ultrasonics, Danbury, Conn.) (2 s on; 10 s off; 4 min; 55%), and debris was separated from the lysate by centrifuging at 10,000×g for 10 min. Ten microliters of lysate were then mixed with 190 μL of pre-warmed 50 mM phe (Tokyo Chemical Industry, Portland, Oreg.) in phosphate buffered saline (PBS) (137 mM NaCl, 2.7 mM KCl, 10 mM Na2HPO4, 2 mM KH2PO4, pH 7.4) in a 96-well F-bottom UVStar (Greiner Bio-One, Kremsmünster, Austria) microtiter plate. Absorbance at 290 nm was measured every 30 s at 37° C. using a SpectraMax M3 (Molecular Devices) plate reader.
# (§2) Each construct included a N-term His-tag used for immobilized metal affinity chromatography (IMAC) purification. Briefly, overnight cell cultures were sonicated in 3 mL Equilibration buffer (300 mM NaCl, 50 mM NaH2PO4, 10 mM imidazole, 15% (w/v) glycerol, pH 8.0). The lysate was loaded onto a prepared column with 2 mL TALON Metal Affinity Resin (Clontech Laboratories, Inc., Mountain View, Calif.). […] Protein concentration was measured by Bradford method using bovine serum albumin (BSA) as the standard.
# (§3) Enzyme kinetics. […] The activity of 0.1 μg of protein was measured by the production of tCA over 10 min by recording the absorbance of the reaction mix at 290 nm. […]
# [2] = target: T2, Anabaena variabilis phenylalanine ammonia-lyase (DM-rAvPAL/AvPAL*; C503S and C565S, SEQ ID NO:2) variant L4P/G218S (Trichormus variabilis, UniProt Q3M5Z3, C503S/C565S/G218S/L4P); assay: Enzyme kinetics: production of tCA from phe (Michaelis-Menten), mutant L4P/G218S; format: biochemical; conditions: relative to parental AvPAL*; phe 35 μM to 17.5 mM, PBS pH 7.4, 37° C.; FIG. 4a
# T2 construct: His-tag (N); made in house; host or cells: E. coli MG1655 rph+
# Method: as §1, §2, §3
# [3] = test system: E. coli; assay: Growth of E. coli in media supplemented with tCA; format: cell-based, Escherichia coli; conditions: MM^full,opt, 1.5 mM tCA
# Method: Microbial strains, plasmids, and growth conditions. All Escherichia coli strains were cultured in lysogeny broth (LB) (VWR International, Randor, Pa.) at 37° C. with rotary shaking at 250 rpm. All media was solidified using 1.5% (w/v) agar (Teknova Inc, Hollister, Calif.). Minimal media (MM) conditions are described in the “Optimization of growth-coupled enrichment” section below. E. coli DH5a was used as a host for the construction of the expression vectors and cultured as above only supplemented with chloramphenicol (25 μg/mL) (RPI Corp). Initial expression in MM was performed in E. coli MG1655(DE3)^ΔendA,ΔrecA and later moved to E. coli MG1655^rph+ for final experiments.
# Optimization of growth-coupled enrichment. Growth was measured by seeding cultures at OD600 0.05 and monitoring cell density over time. Initial experiments used a base nitrogen-deficient minimal media (MM^N-) (33.7 mM Na2HPO4, 22 mM KH2PO4, 8.55 mM NaCl, 1 mM MgSO4, 0.1 mM CaCl2), 10 μM FeSO4, 0.4% (v/v) glycerol, 10 μg/mL thiamine, 20 μM IPTG, 12.5 μg/mL chloramphenicol, pH 7.4) that was supplemented with 9.35 mM phe (MM^phe,init) or 9.35 mM NH4Cl) Variable conditions were changed across the parameters outlined in FIG. 2, as well as moving to a more favorable strain for growth in minimal media. […]
# T1 sequence (Q3M5Z3 whole entry M222L/C503S/C565S, looked up): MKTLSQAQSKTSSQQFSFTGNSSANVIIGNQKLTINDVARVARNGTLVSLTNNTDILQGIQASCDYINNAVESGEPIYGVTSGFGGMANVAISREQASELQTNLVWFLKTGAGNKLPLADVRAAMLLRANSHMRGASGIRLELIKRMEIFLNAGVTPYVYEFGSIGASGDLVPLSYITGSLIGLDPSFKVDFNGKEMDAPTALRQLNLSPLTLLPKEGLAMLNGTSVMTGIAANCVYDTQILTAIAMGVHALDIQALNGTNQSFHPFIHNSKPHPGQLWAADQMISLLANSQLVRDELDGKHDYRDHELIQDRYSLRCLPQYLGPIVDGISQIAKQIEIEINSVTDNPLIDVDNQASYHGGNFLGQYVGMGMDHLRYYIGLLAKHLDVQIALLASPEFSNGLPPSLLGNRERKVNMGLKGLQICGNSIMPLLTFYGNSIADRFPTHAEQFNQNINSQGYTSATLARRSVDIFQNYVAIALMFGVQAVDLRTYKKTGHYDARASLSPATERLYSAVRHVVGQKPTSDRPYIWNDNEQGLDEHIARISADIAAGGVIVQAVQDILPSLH
# T2 sequence (Q3M5Z3 whole entry L4P/G218S/C503S/C565S, looked up): as the sequence (Q3M5Z3 whole entry M222L/C503S/C565S, looked up) above, with L4P, G218S, L222M counted along it
Compound,catalytic efficiency (relative to AvPAL*) ([1]; compared to AvPAL*),"kcat (increase over parental AvPAL*) ([1]; relative to parental AvPAL*, phe 35 μM to 17.5 mM, FIG. 4a)",KM (fold higher than parent) [2],kcat (increase over parental AvPAL*) [2],growth of cells supplemented with tCA [3]
"N[C@@H](Cc1ccccc1)C(=O)O [phe, phenylalanine]",improved catalytic efficiency,70-80%,~2.5 ×,70-80%,
"O=C(O)/C=C/c1ccccc1 [tCA, trans-cinnamic acid]",,,,,impaired growth
